Measured values published in the NIST ThermoML archive (doi:10.1021/acs.jced.8b01097).
Numbers after ± are expanded uncertainties.

Assay: xn = mol fraction of the nth substance listed
Conditions: 85 kPa, Liquid; for viscosity: Concentric cylinders viscometry; for mass density: Vibrating tube method

CCC(C)O (centres undefined) [butan-2-ol] + CC(C)O
Conditions	mass density [kg/m3]	viscosity [mPa·s]
293.15 K, x1 = 0.0807	787.1 ± 1	2.497 ± 0.15
293.15 K, x1 = 0.1619	789.2 ± 1	2.584 ± 0.16
293.15 K, x1 = 0.2385	791 ± 1	2.674 ± 0.16
293.15 K, x1 = 0.3492	793.6 ± 1	2.814 ± 0.17
293.15 K, x1 = 0.4386	795.7 ± 1	2.932 ± 0.18
293.15 K, x1 = 0.56	798.3 ± 1	3.097 ± 0.19
293.15 K, x1 = 0.6489	800 ± 1	3.221 ± 0.19
293.15 K, x1 = 0.7402	801.8 ± 1	3.352 ± 0.2
293.15 K, x1 = 0.8494	803.7 ± 1	3.511 ± 0.21
293.15 K, x1 = 0.9403	805.3 ± 1	3.648 ± 0.22
293.15 K, x1 = 1	806.2 ± 1	3.743 ± 0.23
298.15 K, x1 = 0.0807	782.9 ± 1	2.146 ± 0.13
298.15 K, x1 = 0.1619	785 ± 1	2.211 ± 0.13
298.15 K, x1 = 0.2385	786.9 ± 1	2.282 ± 0.14
298.15 K, x1 = 0.3492	789.5 ± 1	2.391 ± 0.14
298.15 K, x1 = 0.4386	791.5 ± 1	2.481 ± 0.15
298.15 K, x1 = 0.56	794.1 ± 1	2.607 ± 0.16
298.15 K, x1 = 0.6489	795.9 ± 1	2.702 ± 0.16
298.15 K, x1 = 0.7402	797.6 ± 1	2.801 ± 0.17
298.15 K, x1 = 0.8494	799.6 ± 1	2.923 ± 0.18
298.15 K, x1 = 0.9403	801.1 ± 1	3.028 ± 0.18
298.15 K, x1 = 1	802 ± 1	3.101 ± 0.19
303.15 K, x1 = 0.0807	778.7 ± 1	1.851 ± 0.11
303.15 K, x1 = 0.1619	780.8 ± 1	1.901 ± 0.12
303.15 K, x1 = 0.2385	782.7 ± 1	1.955 ± 0.12
303.15 K, x1 = 0.3492	785.3 ± 1	2.038 ± 0.12
303.15 K, x1 = 0.4386	787.4 ± 1	2.107 ± 0.13
303.15 K, x1 = 0.56	790 ± 1	2.204 ± 0.13
303.15 K, x1 = 0.6489	791.8 ± 1	2.276 ± 0.14
303.15 K, x1 = 0.7402	793.5 ± 1	2.352 ± 0.14
303.15 K, x1 = 0.8494	795.5 ± 1	2.444 ± 0.15
303.15 K, x1 = 0.9403	797 ± 1	2.524 ± 0.15
303.15 K, x1 = 1	797.9 ± 1	2.579 ± 0.16
308.15 K, x1 = 0.0807	774.4 ± 1	1.603 ± 0.097
308.15 K, x1 = 0.1619	776.5 ± 1	1.643 ± 0.099
308.15 K, x1 = 0.2385	778.5 ± 1	1.684 ± 0.1
308.15 K, x1 = 0.3492	781.1 ± 1	1.747 ± 0.11
308.15 K, x1 = 0.4386	783.1 ± 1	1.801 ± 0.11
308.15 K, x1 = 0.56	785.7 ± 1	1.876 ± 0.11
308.15 K, x1 = 0.6489	787.5 ± 1	1.932 ± 0.12
308.15 K, x1 = 0.7402	789.3 ± 1	1.991 ± 0.12
308.15 K, x1 = 0.8494	791.2 ± 1	2.062 ± 0.12
308.15 K, x1 = 0.9403	792.7 ± 1	2.121 ± 0.13
308.15 K, x1 = 1	793.6 ± 1	2.162 ± 0.13
313.15 K, x1 = 0.0807	769.9 ± 1	1.397 ± 0.084
313.15 K, x1 = 0.1619	772.1 ± 1	1.427 ± 0.086
313.15 K, x1 = 0.2385	774 ± 1	1.459 ± 0.088
313.15 K, x1 = 0.3492	776.7 ± 1	1.508 ± 0.091
313.15 K, x1 = 0.4386	778.7 ± 1	1.549 ± 0.093
313.15 K, x1 = 0.56	781.3 ± 1	1.608 ± 0.097
313.15 K, x1 = 0.6489	783.1 ± 1	1.652 ± 0.1
313.15 K, x1 = 0.7402	784.9 ± 1	1.697 ± 0.1
313.15 K, x1 = 0.8494	786.8 ± 1	1.751 ± 0.11
313.15 K, x1 = 0.9403	788.4 ± 1	1.798 ± 0.11
313.15 K, x1 = 1	789.2 ± 1	1.828 ± 0.11
318.15 K, x1 = 0.0807	765.5 ± 1	1.221 ± 0.074
318.15 K, x1 = 0.1619	767.6 ± 1	1.246 ± 0.075
318.15 K, x1 = 0.2385	769.6 ± 1	1.271 ± 0.077
318.15 K, x1 = 0.3492	772.2 ± 1	1.31 ± 0.079
318.15 K, x1 = 0.4386	774.3 ± 1	1.342 ± 0.081
318.15 K, x1 = 0.56	776.9 ± 1	1.388 ± 0.084
318.15 K, x1 = 0.6489	778.7 ± 1	1.422 ± 0.086
318.15 K, x1 = 0.7402	780.4 ± 1	1.457 ± 0.088
318.15 K, x1 = 0.8494	782.4 ± 1	1.5 ± 0.091
318.15 K, x1 = 0.9403	783.9 ± 1	1.536 ± 0.093
318.15 K, x1 = 1	784.7 ± 1	1.559 ± 0.094
323.15 K, x1 = 0.0807	760.9 ± 1	1.072 ± 0.065
323.15 K, x1 = 0.1619	763.1 ± 1	1.093 ± 0.066
323.15 K, x1 = 0.2385	765 ± 1	1.113 ± 0.067
323.15 K, x1 = 0.3492	767.7 ± 1	1.144 ± 0.069
323.15 K, x1 = 0.4386	769.7 ± 1	1.169 ± 0.071
323.15 K, x1 = 0.56	772.4 ± 1	1.205 ± 0.073
323.15 K, x1 = 0.6489	774.2 ± 1	1.231 ± 0.074
323.15 K, x1 = 0.7402	775.9 ± 1	1.258 ± 0.076
323.15 K, x1 = 0.8494	777.9 ± 1	1.291 ± 0.078
323.15 K, x1 = 0.9403	779.4 ± 1	1.318 ± 0.08
323.15 K, x1 = 1	780.2 ± 1	1.318 ± 0.08
